In patent US10023579B2, “Pyrrolopyrimidine compounds, use as inhibitors of the kinase LRRK2, and methods for preparation thereof” (Southern Research Institute, priority 2015, dated 2018) one finds IC50 data, which are given here for 28 compounds.

Where “and” joins values, the source holds several entries; their conditions need not be identical. Identical values can stand only once.

Assay [1] addresses T1, WT-LRRK2 (recombinant GST-LRRK2 delta970) (Homo sapiens, UniProt Q5S007).
T1 construct: Recombinant GST-LRRK2 (delta970); GST (N); host or cells: baculovirus-infected Sf9 insect cells
The assay can be described thus: LRRK2 kinase assay, wild type (32P radiometric, peptide substrate). Format: biochemical. The conditions noted are these: WT-LRRK2 30 nM, ATP ~92 μM (Km), 30 min at 30° C. On the procedure: (§1) Compounds were assessed for inhibition of LRRK2 inhibition using the following procedure. Recombinant GST-LRRK2 (delta970) purified from baculovirus infected insect cells (SF9), at least 90% pure and either wild-type sequence or bearing the pathogenic G2019S mutation, was combined into a kinase buffer at 30 nM concentration. Kinase buffer consists of 50 mM Tris HCl pH 7.4, 1 mM EDTA, and 50 μM peptide substrate (amino acid sequence […]). Experimental compounds or control (no compound) were added at desired concentrations in DMSO and water, where final concentration of DMSO in kinase reactions was 0.1% for all drug concentrations. […] Reactions were incubated at 1400 RPM at 30° C. for 30 min. and then spotted in triplicate directly onto a slot-blot apparatus fitted with phospho-cellulose paper and allowed to dry. Each slot was then washed with 10 mM phosphoric acid buffer until beta-radiation could not be detected in eluted wash buffer, usually ˜1 mL per slot. Paper within each slot were excised and radiation measured by liquid scintillation.

The target in assay [2] is T2, G2019S-LRRK2 (recombinant GST-LRRK2 delta970) (Homo sapiens, UniProt Q5S007, G2019S).
T2 construct: Recombinant GST-LRRK2 (delta970); GST (N); host or cells: baculovirus-infected Sf9 insect cells
T2 sequence (Q5S007 970-2527 G2019S limits assumed): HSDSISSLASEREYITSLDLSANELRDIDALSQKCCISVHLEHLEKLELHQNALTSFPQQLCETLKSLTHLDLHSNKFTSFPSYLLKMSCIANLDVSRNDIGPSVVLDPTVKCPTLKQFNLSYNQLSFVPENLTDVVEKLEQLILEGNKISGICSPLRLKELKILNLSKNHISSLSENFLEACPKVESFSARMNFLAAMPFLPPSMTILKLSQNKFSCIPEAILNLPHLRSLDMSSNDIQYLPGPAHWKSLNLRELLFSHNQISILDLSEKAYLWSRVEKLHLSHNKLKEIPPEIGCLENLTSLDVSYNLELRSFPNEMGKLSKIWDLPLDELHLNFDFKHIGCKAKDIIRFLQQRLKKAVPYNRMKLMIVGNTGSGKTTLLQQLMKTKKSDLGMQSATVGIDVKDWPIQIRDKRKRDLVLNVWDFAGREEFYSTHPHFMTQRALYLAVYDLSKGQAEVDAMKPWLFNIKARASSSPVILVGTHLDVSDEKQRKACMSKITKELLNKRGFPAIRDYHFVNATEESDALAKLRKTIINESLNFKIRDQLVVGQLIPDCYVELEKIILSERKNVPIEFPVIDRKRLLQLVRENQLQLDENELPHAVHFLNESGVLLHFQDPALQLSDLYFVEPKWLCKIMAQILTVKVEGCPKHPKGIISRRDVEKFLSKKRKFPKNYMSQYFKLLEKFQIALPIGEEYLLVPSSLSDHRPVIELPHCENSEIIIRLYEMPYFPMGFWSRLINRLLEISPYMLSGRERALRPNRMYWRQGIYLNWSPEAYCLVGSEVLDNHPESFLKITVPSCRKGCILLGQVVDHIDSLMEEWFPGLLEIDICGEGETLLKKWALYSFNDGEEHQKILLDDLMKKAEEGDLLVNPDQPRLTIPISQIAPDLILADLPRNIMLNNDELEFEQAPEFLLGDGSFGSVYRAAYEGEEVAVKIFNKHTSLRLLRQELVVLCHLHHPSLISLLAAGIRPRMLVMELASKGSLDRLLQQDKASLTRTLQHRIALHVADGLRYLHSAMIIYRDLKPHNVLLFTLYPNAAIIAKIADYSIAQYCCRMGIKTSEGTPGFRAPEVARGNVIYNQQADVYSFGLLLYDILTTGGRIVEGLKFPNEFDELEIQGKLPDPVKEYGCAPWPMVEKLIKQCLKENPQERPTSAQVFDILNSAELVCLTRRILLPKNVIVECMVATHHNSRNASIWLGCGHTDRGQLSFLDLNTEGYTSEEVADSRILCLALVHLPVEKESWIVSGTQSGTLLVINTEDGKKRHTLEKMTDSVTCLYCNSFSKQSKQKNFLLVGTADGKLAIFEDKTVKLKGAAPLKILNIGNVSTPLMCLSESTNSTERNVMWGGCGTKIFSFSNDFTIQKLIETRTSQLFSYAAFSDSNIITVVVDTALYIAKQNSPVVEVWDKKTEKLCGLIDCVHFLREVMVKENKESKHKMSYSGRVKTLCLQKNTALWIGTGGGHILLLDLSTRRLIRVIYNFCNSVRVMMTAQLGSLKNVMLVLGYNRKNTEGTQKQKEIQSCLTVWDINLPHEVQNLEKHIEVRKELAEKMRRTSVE
Nature of the assay: LRRK2 kinase assay, G2019S mutant (32P radiometric, peptide substrate). The assay is classed as biochemical. As to conditions: G2019S-LRRK2 30 nM, ATP ~52 μM (Km), 30 min at 30° C. On the procedure:
as §1

T1 sequence (Q5S007 970-2527 limits assumed): as the sequence (Q5S007 970-2527 G2019S limits assumed) above, with S1050G counted along it

On to `CNC(=O)C(C)n1cc(Nc2nc(N[C@@H](C)C3CC3)c3cc[nH]c3n2)c(Cl)n1` (stereo partly drawn) [Compound 46, 2-(3-chloro-4-((4-(((S)-1-cyclopropylethyl)amino)-7H-pyrrolo[2,3-d]pyrimidin-2-yl)amino)-1H-pyrazol-1-yl)-N-methylpropanamide], for which the 50% inhibitory concentration (IC50) (in general, the concentration that inhibits the measured activity by half) in assay [1] was determined as 0.012 µM; in assay [2] it was 0.017 µM. The like results for `COCC(C)n1cc(Nc2nc(N[C@@H](C)C3CC3)c3cc[nH]c3n2)cn1` (stereo partly drawn) [Compound 34, N4-((S)-1-cyclopropylethyl)-N2-(1-(1-methoxypropan-2-yl)-1H-pyrazol-4-yl)-7H-pyrrolo[2,3-d]pyrimidine-2,4-diamine] were, in that order, 0.011 µM and 0.015 µM. Regarding `Cc1c(Nc2nc(N[C@@H](C)c3ccccc3)c3cc[nH]c3n2)cnn1C(C)C` [Compound 24, (S)-N2-(1-isopropyl-5-methyl-1H-pyrazol-phenylethyl)-7H-pyrrolo[2,3-d]pyrimidine-2,4-diamine], the IC50 in assay [1] was 0.055 µM; in assay [2], 0.063 µM. Consider `CC(C)n1cc(Nc2nc(N[C@@H](C)C3CCC3)c3cc[nH]c3n2)cn1` [Compound 42, (S)-N4-(1-cyclobutylethyl)-N2-(1-isopropyl-1H-pyrazol-4-yl)-7H-pyrrolo[2,3-d]pyrimidine-2,4-diamine], for which the results for the IC50 in assay [1] and in assay [2] were 0.067 µM and 0.078 µM, respectively.

Turning to `C[C@H](Nc1nc(Nc2cn(C3COC3)nn2)nc2[nH]ccc12)C1CC1` [Compound 56, (S)-N4-(1-cyclopropylethyl)-N2-(1-(oxetan-3-yl)-1H-1,2,3-triazol-4-yl)-7H-pyrrolo[2,3-d]pyrimidine-2,4-diamine], the IC50 in assay [1] was 0.073 µM; in assay [2], 0.115 µM. For `CC(C)n1cc(Nc2nc(NC3CCC3)c3nc[nH]c3n2)cn1` [Compound 13, N6-cyclobutyl-N2-(1-isopropyl-1H-pyrazol-4-yl)-9H-purine-2,6-diamine], in that order: 0.007 µM and 0.015 µM. For `Cc1c(Nc2nc(N[C@@H](C)C3CCCCC3)c3cc[nH]c3n2)cnn1C(C)C` [Compound 25, (S)-N4-(1-cyclohexylethyl)-N2-(1-isopropyl-5-methyl-1H-pyrazol-4-yl)-7H-pyrrolo[2,3-d]pyrimidine-2,4-diamine], in that order: 0.042 µM and 0.043 µM. The like results for `CC(C)n1ccc(Nc2nc(N[C@@H](C)C3CC3)c3nc[nH]c3n2)n1` [Compound 59, (S)-N6-(1-cyclopropylethyl)-N2-(1-isopropyl-1H-pyrazol-3-yl)-9H-purine-2,6-diamine] were, in that order, 0.051 µM and 0.115 µM. In the case of `CC(C)n1cc(Nc2nc(N(C)[C@@H](C)C3CC3)c3cc[nH]c3n2)cn1` [Compound 48, (S)-N4-(1-cyclopropylethyl)-N2-(1-isopropyl-1H-pyrazol-4-yl)-N4-methyl-7H-pyrrolo[2,3-d]pyrimidine-2,4-diamine], the IC50 in assay [1] was 0.019 µM; in assay [2], 0.044 µM. For `CC(C)n1cc(Nc2nc(N[C@@H](C)C3CC3)c3nc[nH]c3n2)cn1` [Compound 12, (S)-N6-(1-cyclopropylethyl)-N2-(1-isopropyl-1H-pyrazol-4-yl)-9H-purine-2,6-diamine], in that order: 0.01 µM and 0.022 µM. Consider `COCc1cc(Nc2nc(N[C@@H](C)C3CC3)c3cc[nH]c3n2)n[nH]1` [Compound 61, (S)-N4-(1-cyclopropylethyl)-N2-(5-(methoxymethyl)-1H-pyrazol-3-yl)-7H-pyrrolo[2,3-d]pyrimidine-2,4-diamine], for which the IC50 in assay [1] came to 0.064 µM; in assay [2], 0.099 µM. The like results for `C[C@H](Nc1nc(Nc2cn(C3CCOC3)nn2)nc2[nH]ccc12)C1CC1` (stereo in doubt) [Compound 50, N4-((S)-1-cyclopropylethyl)-N2-(1-((S)-tetrahydrofuran-3-yl)-1H-1,2,3-triazol-4-yl)-7H-pyrrolo[2,3-d]pyrimidine-2,4-diamine] were, in that order, 0.04 µM and 0.061 µM. For `COCCn1cc(Nc2nc(N[C@@H](C)C3CC3)c3cc[nH]c3n2)cn1` [Compound 32, (S)-N4-(1-cyclopropylethyl)-N2-(1-(2-methoxyethyl)-1H-pyrazol-4-yl)-7H-pyrrolo[2,3-d]pyrimidine-2,4-diamine], in that order: 0.011 µM and 0.011 µM. For `Cc1cc(Nc2nc(N[C@@H](C)C3CC3)c3cc[nH]c3n2)n[nH]1` [Compound 36, (S)-N4-(1-cyclopropylethyl)-N2-(5-methyl-1H-pyrazol-3-yl)-7H-pyrrolo[2,3-d]pyrimidine-2,4-diamine], in that order: 0.038 µM and 0.044 µM. As to `Cc1c(Nc2nc(N[C@H]3CCc4ccccc43)c3cc[nH]c3n2)cnn1C(C)C(=O)N1CCN(C)CC1` (stereo partly drawn) [Compound 18, 2-(4-((4-(((S)-2,3-dihydro-1H-inden-1-yl)amino)-7H-pyrrolo[2,3-d]pyrimidin-2-yl)amino)-5-methyl-1H-pyrazol-1-yl)-1-(4-methylpiperazin-1-yl)propan-1-one], the IC50 is 0.037 µM in assay [1] and 0.049 µM in assay [2]. Regarding `COCC(C)n1cc(Nc2nc(N(C)[C@@H](C)C3CC3)c3cc[nH]c3n2)cn1` (stereo partly drawn) [Compound 49, N4-((S)-1-cyclopropylethyl)-N2-(1-(1-methoxypropan-2-yl)-1H-pyrazol-4-yl)-N4-methyl-7H-pyrrolo[2,3-d]pyrimidine-2,4-diamine], the IC50 worked out at 0.027 µM in assay [1] and 0.069 µM in assay [2].

As for `COCCn1cc(Nc2nc(N[C@@H](C)C3CC3)c3cc[nH]c3n2)nn1` [Compound 39, (S)-N4-(1-cyclopropylethyl)-N2-(1-(2-methoxyethyl)-1H-1,2,3-triazol-4-yl)-7H-pyrrolo[2,3-d]pyrimidine-2,4-diamine], the IC50 in assay [2] was 0.058 µM and 0.113 µM and 0.088 µM. With `CC(C)n1cc(Nc2nc(N[C@@H](C)c3ccccn3)c3cc[nH]c3n2)cn1` [Compound 35, (S)-N2-(1-isopropyl-1H-pyrazol-4-yl)-N4-(1-(pyridin-2-yl)ethyl)-7H-pyrrolo[2,3-d]pyrimidine-2,4-diamine], the concentration for half-maximal inhibition (IC50) in assay [1] stood at 0.066 µM; in assay [2], 0.097 µM. The like results for `CC(O)Cn1cc(Nc2nc(N[C@@H](C)C3CC3)c3cc[nH]c3n2)nn1` (stereo partly drawn) [Compound 54, 1-(4-((4-(((S)-1-cyclopropylethyl)amino)-7H-pyrrolo[2,3-d]pyrimidin-2-yl)amino)-1H-1,2,3-triazol-1-yl)propan-2-ol] were, in that order, 0.021 µM and 0.027 µM.

Take `Cn1cc(Nc2nc(NC3CCC3)c3cc[nH]c3n2)cn1` [Compound 7, N4-cyclobutyl-N2-(1-methyl-1H-pyrazol-4-yl)-7H-pyrrolo[2,3-d]pyrimidine-2,4-diamine]: the IC50 in assay [1] came out at 0.008 µM; in assay [2] it was 0.019 µM.

As to `C[C@H](Nc1nc(Nc2cn([C@H]3CCOC3)nn2)nc2[nH]ccc12)C1CC1` [Compound 51, N4-((S)-1-cyclopropylethyl)-N2-(1-((S)-tetrahydrofuran-3-yl)-1H-1,2,3-triazol-4-yl)-7H-pyrrolo[2,3-d]pyrimidine-2,4-diamine], the IC50 came to 0.066 µM in assay [1] and 0.102 µM in assay [2].

Regarding `C[C@H](Nc1nc(Nc2cn([C@@H](C)CO)nn2)nc2[nH]ccc12)C1CC1` [Compound 58, (S)-2-(4-((4-(((S)-1-cyclopropylethyl)amino)-7H-pyrrolo[2,3-d]pyrimidin-2-yl)amino)-1H-1,2,3-triazol-1-yl)propan-1-ol], the IC50 was found to be 0.072 µM in assay [1] and 0.101 µM in assay [2]. The like results for `C[C@H](Nc1nc(Nc2cnn(C)c2)nc2[nH]cnc12)C1CC1` [Compound 9, (S)-N6-(1-cyclopropylethyl)-N2-(1-methyl-1H-pyrazol-4-yl)-9H-purine-2,6-diamine] were, in that order, 0.038 µM and 0.1 µM. With `Cc1cc(Nc2nc(N[C@@H](C)C3CC3)c3nc[nH]c3n2)nn1C(C)C` [Compound 60, (S)-N6-(1-cyclopropylethyl)-N2-(1-isopropyl-5-methyl-1H-pyrazol-3-yl)-9H-purine-2,6-diamine], the IC50 in assay [1] was found to be 0.032 µM; in assay [2], 0.065 µM.

Turning to `CC(C)n1cc(Nc2nc(N[C@@H](C)c3ccccc3)c3cc[nH]c3n2)cn1` [Compound 22, (S)-N2-(1-isopropyl-1H-pyrazol-4-yl)-N4-(1-phenylethyl)-7H-pyrrolo[2,3-d]pyrimidine-2,4-diamine], the IC50 in assay [1] stood at 0.037 µM; in assay [2], 0.056 µM. For `C[C@H](Nc1nc(Nc2cnn(C3CCN(C)CC3)c2)nc2[nH]ccc12)C1CC1` [Compound 31, (S)-N4-(1-cyclopropylethyl)-N2-(1-(1-methylpiperidin-4-yl)-1H-pyrazol-4-yl)-7H-pyrrolo[2,3-d]pyrimidine-2,4-diamine], in that order: 0.02 µM and 0.023 µM. Regarding `Cc1cc(Nc2nc(N[C@@H](C)C3CC3)c3nc[nH]c3n2)n[nH]1` [Compound 10, (S)-N6-(1-cyclopropylethyl)-N2-(5-methyl-1H-pyrazol-3-yl)-9H-purine-2,6-diamine], the IC50 in assay [1] worked out at 0.019 µM; in assay [2], 0.048 µM. Turning to `CC(C)n1cc(Nc2nc(NC3CCC3)c3cc[nH]c3n2)cn1` [Compound 8, N4-cyclobutyl-N2-(1-isopropyl-1H-pyrazol-4-yl)-7H-pyrrolo[2,3-d]pyrimidine-2,4-diamine], the IC50 in assay [1] was found to be 0.005 µM; in assay [2], 0.009 µM.
